For 1 compound, dissolution in water and reported solubility results are on record in patent US20240285534A1, “CO-AMORPHOUS SOLID FORMS OF FLAVONOIDS” (ALPARIS, S.A. de C.V., priority 2022, published 2024).

Data set [1] can be described thus: Solubility test in water (supersaturated solutions). The settings on record: 22 mg added to 0.5 ml of water. The class given is physicochemical. The method, then:
Supersaturated solutions of naringenin and NRG:ARG 1:3 NSF were prepared from 0.5 ml of water.

The conditions of data set [2]: Wen et al., Molecules 2010; cited from earlier work.

Turning to `O=C1C[C@@H](c2ccc(O)cc2)Oc2cc(O)cc(O)c21` [naringenin, Naringenin], the dissolution in water result in data set [1] is on record as “practically it did not dissolve at all”. For the same compound, in data set [2], the reported solubility is 4.38 µg/mL.
